Each structure is given as a SMILES string.

T1 sequence (P50406 whole entry): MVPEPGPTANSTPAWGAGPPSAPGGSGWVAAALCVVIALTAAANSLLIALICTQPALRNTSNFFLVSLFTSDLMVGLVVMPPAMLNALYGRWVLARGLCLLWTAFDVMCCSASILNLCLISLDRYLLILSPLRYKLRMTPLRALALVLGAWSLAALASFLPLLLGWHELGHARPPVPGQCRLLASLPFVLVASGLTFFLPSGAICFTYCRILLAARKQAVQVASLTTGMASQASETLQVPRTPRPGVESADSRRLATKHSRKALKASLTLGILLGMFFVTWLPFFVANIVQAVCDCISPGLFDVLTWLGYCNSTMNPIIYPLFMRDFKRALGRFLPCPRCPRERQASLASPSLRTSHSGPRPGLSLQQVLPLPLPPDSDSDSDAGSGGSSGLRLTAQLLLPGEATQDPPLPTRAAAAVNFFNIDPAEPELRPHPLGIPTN

One assay concerns the target T1, recombinant human 5-HT6 receptor (Homo sapiens, UniProt P50406).
T1 construct: expressed in transfected cells
Briefly: in vitro radioligand binding, [3H]LSD competition in HEK293 cell membranes.
Conditions: not given
Here is the method: The binding activity of compounds of this invention in vitro was determined as follows. Duplicate determinations of ligand affinity are made by competing for binding of [^3H]LSD in cell membranes derived from HEK293 cells stably expressing recombinant human 5-HT6 receptor.
All determinations were made in assay buffer containing 50 mM Tris-HCl, 10 mM MgSO4, 0.5 mM EDTA, 1 mM ascorbic acid, pH 7.4 at 37° C., in a 250 microliter reaction volume. Assay tubes containing [^3H] LSD (5 nM), competing ligand, and membrane were incubated in a shaking water bath for 60 min. at 37° C., filtered onto Packard GF-B plates (pre-soaked with 0.3% PEI) using a Packard 96 well cell harvester and washed 3 times in ice cold 50 mM Tris-HCl. Bound [^3H] LSD was determined as radioactive counts per minute using Packard TopCount.
Displacement of [3H]LSD from the binding sites was quantified by fitting concentration-binding data to a 4-parameter logistic equation:
[formula] where Hill is the Hill slope, [ligand] is the concentration of competing radioligand and IC50 is the concentration of radioligand producing half-maximal specific binding of radioligand. The specific binding window is the difference between the Bmax and the basal parameters.
Turning to `Cn1c(S(=O)(=O)c2ccccc2)cc2c(N3CCNCC3)cccc21` [Compound 5, 2-Benzenesulfonyl-1-methyl-4-piperazin-1-yl-1H-indole], the Ki was 0.2 nM.

For the compound `Cn1c(S(=O)(=O)c2cccc(Br)c2)cc2c(N3CCNCC3)cccc21` [Compound 14, 2-(3-Bromo-benzenesulfonyl)-1-methyl-4-piperazin-1-yl-1H-indole], the Ki was 0.501 nM.

Staying with this assay, now noted: [3H]LSD (5 nM) displacement, membranes of HEK293 cells stably expressing recombinant human 5-HT6 receptor, pH 7.4, 37° C., 60 min; read-out: pKi (converted).
For the compound `CN1CCN(c2cccc3[nH]c(S(=O)(=O)c4ccccc4)cc23)CC1` [Compound 2, 2-Benzenesulfonyl-4-(4-methyl-piperazin-1-yl)-1H-indole], the Ki is 0.126 nM.

With `CC1CN(c2cccc3[nH]c(S(=O)(=O)c4ccccc4)cc23)CC(C)N1` (stereo not drawn) [Compound 9, 2-Benzenesulfonyl-4-(3,5-dimethyl-piperazin-1-yl)-1H-indole], the Ki is 0.794 nM.

On to `CN1CCN(c2cccc3[nH]c(S(=O)(=O)c4ccccc4F)cc23)CC1` [Compound 12, 2-(2-Fluoro-benzenesulfonyl)-4-(4-methyl-piperazin-1-yl)-1H-indole], for which the Ki is 0.126 nM.

For the compound `O=S(=O)(c1ccccc1)c1cc2c(C3CCNCC3)cccc2[nH]1` [Compound 15, 2-Benzenesulfonyl-4-piperidin-4-yl-1H-indole], the Ki is 0.631 nM.
